target: T1, recombinant human Itk kinase domain fused with GST (Homo sapiens, UniProt Q08881); assay: Itk LANCE TRF Assay; type: biochemical; conditions: 50 μM ATP, 2 μM peptide substrate, 50 minutes RT; read-out: Inhibition of Kinase Itk (IC50 μM)
T1 construct: recombinant human Itk kinase domain fused with GST; GST (Glutathione S-Transferase); made in house; host or cells: High five insect cells
T1 sequence (Q08881 363-615 limits assumed): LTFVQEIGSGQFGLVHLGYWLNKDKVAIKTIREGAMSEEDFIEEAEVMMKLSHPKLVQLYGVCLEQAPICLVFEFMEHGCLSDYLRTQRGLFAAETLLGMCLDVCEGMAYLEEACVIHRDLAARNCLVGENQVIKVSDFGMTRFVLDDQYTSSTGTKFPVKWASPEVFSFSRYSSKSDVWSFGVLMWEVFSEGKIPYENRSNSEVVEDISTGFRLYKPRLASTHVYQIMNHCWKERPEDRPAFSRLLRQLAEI
Protocol: The Itk kinase assay utilized recombinant human Itk kinase domain fused with GST (Glutathione S-Transferase). The protein was expressed in High five insect cells, purified in one step on an affinity chromatography glutathione column and stored in 50 mM Tris/HCl (pH 7.6), 150 mM NaCl, 5% (w/v) mannitol, 1 mM DTT, 30% glycerol at −70° C. The kinase substrate used in the assay was a biotinylated peptide derived from the Src-optimal substrate (Nair et al, J. Med. Chem., 38: 4276, 1995; biotin-AEEEIYGEFEAKKKK).
The assay additions were as follows: Test compounds (or controls; 1 μL in 100% DMSO) were added to black 96-well flat-bottomed plates (Greiner 655076) followed by 20 μL Itk in assay buffer and the reaction was started by adding 20 μL ATP and peptide substrate in assay buffer. The assay buffer constitution during phosphorylation was: 50 mM HEPES (pH 6.8), 10 mM MgCl2, 0.015% Brij 35, 1 mM DTT, 10% glycerol, 160 ng/well Itk, 2 μM peptide substrate and 50 μM ATP. The assay was stopped after 50 minutes (RT) by adding 150 μL ice-cold Stop solution (50 mM Tris/HCl, pH 7.5, 10 mM EDTA, 0.9% NaCl and 0.1% BSA) together with LANCE reagents (2 nM PT66-Eu^3+, Wallac AD0069 and 5 μg/ml Streptavidin-APC, Wallac AD0059. Both concentrations were final in stopped assay solution). The plates were measured on a Wallac 1420 Victor 2 instrument with TRF settings after 1 h incubation, and the ratio (665 signal/615 signal)*10000 was used to calculate the inhibition values. IC50 values were determined using XLfit.

Structure (SMILES) | IC50
O=C(NCCCN1CCOCC1)c1ccc2nc(-c3ccc(Cl)cc3O)sc2c1 [Example 6, 2-(4-Chloro-2-hydroxyphenyl)-N-(3-morpholin-4-ylpropyl)-1,3-benzothiazole-6-carboxamide] | 0.94 µM
Oc1ccc(Cl)cc1-c1nc2ccc(CN3CCCC3)cc2s1 [Example 34, 4-Chloro-2-[6-(pyrrolidin-1-ylmethyl)-1,3-benzothiazol-2-yl]phenol] | 1.47 µM
OCc1ccc2nc(-c3ccccc3O)sc2c1 [Example 44, 2-[6-(Hydroxymethyl)-1,3-benzothiazol-2-yl]phenol] | 3.04 µM

Reference: patent publication US20060106015A1, “Novel use of benzothiazole derivatives” (priority 2002, published 2006)
